Among the data in patent US11827628B2, “Compositions and methods for inhibition of the JAK pathway” (Rigel Pharmaceuticals, Inc., priority 2005, dated 2023) are IC50 values, retold here.

Where a name gives a salt, the structure may show the parent alone. Read-outs that look alike come from different tables or passages of the source.

One assay deals with Primary human T-cells. The experiment in a line: Primary Human T-Cell Proliferation Assay Stimulated with IL-2 (CellTiter-Glo). The class given is cell-based. Conditions: read-out: IC50, Example 42. The text has this:
The activity of the active compounds of the invention may further be characterized by assaying the effect of the 2,4-substituted pyrimidinediamine compounds described herein on the proliferative response of primary human T-cells. In this assay, primary human T-cells derived from peripheral blood and pre-activated through stimulation of the T-cell receptor and CD28, proliferate in culture in response to the cytokine Interleukin-2 (IL-2). This proliferative response is dependent on the activation of JAK1 and JAK3 tyrosine kinases, which phosphorylate and activate the transcription factor Stat-5. The primary human T-cells are incubated with the 2,4-substituted pyrimidinediamine compounds in the presence of IL-2 for 72 hours and at the assay endpoint intracellular ATP concentrations are measured to assess cell viability. A reduction in cell proliferation compared to control conditions is indicative of inhibition of the JAK kinase pathway. An exemplary assay of this type is described in greater detail in Example 42
Primary human T-cells derived from peripheral blood and pre-activated through stimulation of the T-cell receptor and CD28, proliferate in vitro in response to the cytokine Interleukin-2 (IL-2). This proliferative response is dependent on the activation of JAK-1 and JAK-3 tyrosine kinases, which phosphorylate and activate the transcription factor Stat-5.
Human primary T cells were prepared as follows. Whole blood was obtained from a healthy volunteer, mixed 1:1 with PBS, layered on to Ficoll Hypaque (Amersham Pharmacia Biotech, Piscataway, NJ, Catalog #17-1440-03) in 2:1 blood/PBS:ficoll ratio and centrifuged for 30 min at 4° C. at 1750 rpm. The lymphocytes at the serum: ficoll interface were recovered and washed twice with 5 volumes of PBS. The cells were resuspended in Yssel's medium (Gemini Bio-products, Woodland, CA, Catalog #400-103) containing 40 U/mL recombinant IL2 (R and D Systems, Minneapolis, MN, Catalog #202-IL (20 rig)) and seeded into a flask pre-coated with 1 μg/mL anti-CD3 (BD Pharmingen, San Diego, CA, Catalog #555336) and 5 μg/mL anti-CD28 (Immunotech, Beckman Coulter of Brea CA, Catalog #IM1376). The primary T-cells were stimulated for 3-4 days, then transferred to a fresh flask and maintained in RPMI with 10% FBS and 40 U/mL IL-2.
Primary T-cells were washed twice with PBS to remove the IL-2 and resuspended in Yssel's medium at 2×10^6 cells/mL. 50 μL of cell suspension containing 80 U/mL IL-2 was added to each well of a flat bottom 96 well black plate. For the unstimulated control, IL-2 was omitted from the last column on the plate. Compounds were serially diluted in dimethyl sulfoxide (DMSO, 99.7% pure, cell culture tested, Sigma-Aldrich, St. Louis, MO, Catalog No. D2650) from 5 mM in 3-fold dilutions, and then diluted 1:250 in Yssel's medium. 50 μL of 2× compound was added per well in duplicate and the cells were allowed to proliferate for 72 hours at 37° C.
Proliferation was measured using CellTiter-Glo® Luminescent Cell Viability Assay (Promega), which determines the number of viable cells in culture based on quantitation of the ATP present, as an indicator of metabolically active cells. The substrate was thawed and allowed to come to room temperature. After mixing the Cell Titer-Glo reagent and diluent together, 100 μL was added to each well. The plates were mixed on an orbital shaker for two minutes to induce lysis and incubated at room temperature for an additional ten minutes to allow the signal to equilibrate. Detection was performed using a Wallac Victor2 1420 multilabel counter purchased from Perkin Elmer, Shelton, CT The IC50 calculated based on the results of this assay are provided in TABLE XII.

For assay [1], the system named is IL-4 stimulated expression of CD23 in human Ramos B cells (JAK-1 and JAK-3). The assay can be described thus: Assay for Ramos B-Cell Line Stimulated with IL-4 (CD23 upregulation, FACS). The class given is cell-based. Conditions: read-out: IC50, Example 41. Put shortly:
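Read-out is surface CD23 by FACS after anti-CD23-PE staining, giving IC50. Before this, cells were stimulated 20-24 h with 50 units/mL (final) human IL-4, following 1 h compound or vehicle pre-treatment at 37 °C; log-phase Ramos B cells, 5×10^4 per well in 5% serum RPMI.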

[2] abbreviates: primary human T-cell proliferation stimulated with IL-2.
The mark [3] stands for this setting: Ramos B-cell line stimulated with IL-4, CD23 expression by FACS.
[4] abbreviates: primary human T-cells stimulated with IL-2, proliferation.
[5] abbreviates: Ramos B cells stimulated with IL-4, CD23 expression by FACS.
[6] abbreviates: Homo sapiens, T-cell, primary human T-cell proliferation stimulated with IL-2.
[7] abbreviates: Homo sapiens, Ramos, Ramos B-cell line stimulated with IL-4, CD23 expression by FACS.

Consider `Cc1cc(COc2ccc(Nc3nc(Nc4ccc(S(N)(=O)=O)cc4)ncc3F)cc2C)no1` [Compound I-240, N2-(4-Aminosulfonylphenyl)-5-fluoro-N4-[3methyl-4-(5-methylisoxazol-3-yl)methyleneoxyphenyl]-2,4-pyrimidinediamine], for which the values for the IC50 (in the assay with Primary human T-cells (setting [2]); in assay [1] (setting [3])) were 5260 nM and 205 nM, respectively.
For `Cc1noc(COc2cccc(Nc3nc(Nc4ccc(S(N)(=O)=O)cc4)ncc3F)c2)n1` [Compound I-253, N2-(4-Aminosulfonylphenyl)-5-fluoro-N4-[3-(3-methyl-1,2,4-oxadiazol-5-yl)methyleneoxyphenyl]-2,4-pyrimidinediamine], in that order: 2560 nM and 127 nM.
For the compound `Cc1cc(COc2ccc(Nc3nc(Nc4ccc(C)c(S(N)(=O)=O)c4)ncc3F)cn2)no1` [Compound V-1, N2-(3-Aminosulfonyl-4-methylphenyl)-5-fluoro-N4-[2-(5-methylisoxazol-3-yl)methyleneoxypyridin-5-yl]-2,4-pyrimidinediamine], the IC50 (in general, the concentration at which inhibition is half-maximal) in the assay on Primary human T-cells (setting [4]) was found to be 9770 nM; in assay [1] (setting [5]), 2000 nM.
For the compound `CC1(C)Oc2cc(Nc3nc(Nc4ccc(Cl)c(S(N)(=O)=O)c4)ncc3F)cnc2N(CC#N)C1=O` [Compound V-15, N2-(3-Aminosulfonyl-4-chlorophenyl)-N4-[2,2-dimethyl-3-oxo-4-cyanomethyl-5-pyrid[1,4]oxazin-7-yl]-5-fluoro-2,4-pyrimidinediamine], the IC50 in the assay with Primary human T-cells (setting [4]) worked out at 9310 nM; in assay [1] (setting [5]) it was 173 nM.
As to `Cc1ccc(Nc2ncc(F)c(Nc3ccc(OC4CCN(C)CC4)c(Cl)c3)n2)cc1S(N)(=O)=O` [II-8, N2-(3-Aminosulfonyl-4-methylphenyl)-5-fluoro-N4-{3-chloro-4-[(1-methylpiperidin-4-yl)oxy]phenyl}-2,4-pyrimidinediamine], the half-maximal inhibitory concentration (IC50) was 564 nM in the assay on Primary human T-cells (setting [6]) and 38.8 nM in assay [1] (setting [7]).
The like results for `NS(=O)(=O)c1ccc(Nc2ncc(F)c(Nc3ccc(Oc4cccnc4)cc3)n2)cc1` [II-14, N2-(4-Aminosulfonylphenyl)-5-fluoro-N4-[4-(3-pyridyloxy)phenyl]-2,4-pyrimidinediamine] were, in that order, 579 nM and 46.9 nM.
The like results for `NS(=O)(=O)c1cc(Nc2ncc(F)c(Nc3ccc(Oc4cccnc4)cc3)n2)cc(S(N)(=O)=O)c1` [II-15, N2-[3,5-bis(Aminosulfonyl)phenyl)-5-fluoro-N4-[4-(3-pyridyloxy)phenyl]-2,4-pyrimidinediamine] were, in that order, 1100 nM and 982 nM.
The like results for `Cc1ccc(Nc2ncc(F)c(Nc3ccc(Oc4ccncc4)cc3)n2)cc1S(N)(=O)=O` [II-16, N2-(3-Aminosulfonyl-4-methylphenyl)-5-fluoro-N4-[4-(4-pyridyloxy)phenyl]-2,4-pyrimidinediamine] were, in that order, 3720 nM and 18300 nM.
Turning to `NS(=O)(=O)c1cccc(Nc2ncc(F)c(Nc3ccc(Oc4ccncc4)cc3)n2)c1` [II-17, N2-(3-Aminosulfonylphenyl)-5-fluoro-N4-[4-(4-pyridyloxy)phenyl]-2,4-pyrimidinediamine], the IC50 in the assay on Primary human T-cells (setting [6]) came out at 8210 nM; in assay [1] (setting [7]) it was 21200 nM.
For the compound `CNS(=O)(=O)c1cc(Nc2ncc(F)c(Nc3ccc(Oc4ccncc4)cc3)n2)ccc1C` [II-18, 5-Fluoro-N2-[3-(N-methylaminosulfony)-4-methylphenyl]-5-fluoro-N4-[4-(4-pyridyloxy)phenyl]-2,4-pyrimidinediamine], the figures for the IC50 (with Primary human T-cells (setting [2]); in assay [1] (setting [3])) were 3310 nM and 2040 nM, respectively.
As to `N#CCCc1ccc(Nc2nc(Nc3ccc(Cl)c(S(N)(=O)=O)c3)ncc2F)cc1` [III-13, N2-(3-Aminosulfonyl-4-chlorophenyl)-N4-[4-(2-cyanoethyl)phenyl]-5-fluoro-2,4-pyrimidinediamine], the IC50 is 701 nM in the assay on Primary human T-cells (setting [6]) and 295 nM in assay [1] (setting [7]).
Take `Cc1cc(CCC#N)ccc1Nc1nc(Nc2cccc(S(N)(=O)=O)c2)ncc1F` [III-24, N2-(3-Aminosulfonylphenyl)-N4-(4-cyanoethylene-2-methylphenyl)-5-fluoro-2,4-pyrimidinediamine]: the concentration for half-maximal inhibition (IC50) in the assay on Primary human T-cells (setting [2]) is 1620 nM; in assay [1] (setting [3]), 258 nM.
The like results for `COc1cc(Nc2nc(Nc3ccc(C)c(S(N)(=O)=O)c3)ncc2F)ccc1CCC#N` [III-25, N2-(3-Aminosulfonyl-4-methylphenyl)-N4-(4-cyanoethylene-3-methoxyphenyl)-5-fluoro-2,4-pyrimidinediamine] were, in that order, 1260 nM and 272 nM.
As for `Cc1cc(CCC#N)ccc1Nc1nc(Nc2cccc(S(N)(=O)=O)c2)ncc1F` [III-26, N2-(3-Aminosulfonylphenyl)-N4-(4-cyanoethylene-2-methylphenyl)-5-fluoro-2,4-pyrimidinediamine], the IC50 was 583 nM in the assay on Primary human T-cells (setting [2]) and 162 nM in assay [1] (setting [3]).
The like results for `CCC(=O)NS(=O)(=O)c1cc(Nc2ncc(F)c(Nc3ccc(C=CC#N)c(Cl)c3)n2)ccc1C` [III-28, N4-(3-Chloro-4-cyanoethylene-phenyl)-5-fluoro-N2-(4-methyl-3-propionylaminosulfonylphenyl)-2,4-pyrimidinediamine] were, in that order, 17400 nM and 3750 nM.
Turning to `CCC(=O)NS(=O)(=O)c1cc(Nc2ncc(F)c(Nc3ccc(CCC#N)c(Cl)c3)n2)ccc1C` [III-29, N4-(3-Chloro-4-cyanoethylene-phenyl)-5-fluoro-N2-(4-methyl-3-propionylaminosulfonylphenyl)-2,4-pyrimidinediamine Sodium salt], the IC50 was 12400 nM with Primary human T-cells (setting [2]) and 3630 nM in assay [1] (setting [3]).
The like results for `Cc1ccc(Nc2ncc(F)c(Nc3ccc(CCC#N)c(C(F)(F)F)c3)n2)cc1S(N)(=O)=O` [III-30, N4-(4-Cyanoethylene-3-trifluoromethylphenyl)-5-fluoro-N2-(4-methyl-3-aminosulfonylphenyl)-2,4-pyrimidinediamine] were, in that order, 319 nM and 64.5 nM.
On to `NC(=O)NCc1ccc(Nc2nc(Nc3ccc(S(N)(=O)=O)cc3)ncc2F)cc1` [III-32, N4-(4-Aminocarbonylaminomethylphenyl)-N2-(4-aminosulfonylphenyl)-5-fluoro-2,4-pyrimidinediamine], for which the values for the IC50 (in the assay with Primary human T-cells (setting [6]); in assay [1] (setting [7])) were 3320 nM and 4400 nM, respectively.
For `NC(=O)NCc1ccc(Nc2nc(Nc3cccc(S(N)(=O)=O)c3)ncc2F)cc1` [III-33, N4-(4-Aminocarbonylaminomethylphenyl)-N2-(3-aminosulfonylphenyl)-5-fluoro-2,4-pyrimidinediamine], in that order: 852 nM and 1680 nM.
For `Cc1ccc(Nc2ncc(F)c(Nc3ccc(CNC(N)=O)cc3)n2)cc1S(N)(=O)=O` [III-34, N4-(4-Aminocarbonylaminomethylphenyl)-N2-(3-aminosulfonyl-4-methylphenyl)-5-fluoro-2,4-pyrimidinediamine], in that order: 381 nM and 473 nM.
On to `CCC(=O)NCc1ccc(Nc2nc(Nc3cccc(S(N)(=O)=O)c3)ncc2F)cc1` [III-36, N2-(3-aminosulfonyl)phenyl-N4-(4-ethylcarbonylaminomethyl)phenyl-5-fluoro-2,4-pyrimidinediamine], for which the IC50 came out at 382 nM with Primary human T-cells (setting [2]) and 394 nM in assay [1] (setting [3]).
